Test results from US10669258B2, “3-sulfonyl-5-aminopyridine-2,4-diol APJ agonists” (BRISTOL-MYERS SQUIBB COMPANY, priority 2016, dated 2020).
Read-outs that look alike come from different tables or passages of the source.

Molecular target: T1, human APJ receptor (Homo sapiens, UniProt P35414)
T1 construct: expressed in transfected cells; host or cells: HEK293
T1 sequence (P35414 1-380): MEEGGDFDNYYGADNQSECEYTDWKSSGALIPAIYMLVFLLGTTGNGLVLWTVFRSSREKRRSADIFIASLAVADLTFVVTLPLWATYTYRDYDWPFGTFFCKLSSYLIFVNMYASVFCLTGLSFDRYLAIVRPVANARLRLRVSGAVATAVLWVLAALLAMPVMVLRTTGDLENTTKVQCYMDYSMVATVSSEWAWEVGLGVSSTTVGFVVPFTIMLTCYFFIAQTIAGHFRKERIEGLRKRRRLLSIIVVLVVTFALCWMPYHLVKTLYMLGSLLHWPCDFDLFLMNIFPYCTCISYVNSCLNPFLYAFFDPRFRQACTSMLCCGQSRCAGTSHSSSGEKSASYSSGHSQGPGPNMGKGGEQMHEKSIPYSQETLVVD
Assay: Intracellular cAMP accumulation assay (APJ hcAMP, HTRF)
Format: cell-based
Conditions: HEK293 cells stably expressing human APJ receptor, inhibition of forskolin-mediated cAMP production
In short: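 Inhibition of forskolin (2 μM)-driven cAMP, with […], measured by HTRF after 30 min room-temperature compound exposure of stably transfected HEK293 cells. cAMP read from a standard curve; variable-slope fit gives EC50, and maximal inhibition is normalised to (Pyr1)apelin-13 as 100%.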

[1] = Table 1, read-out: hAPJ cAMP EC50 Potency range
[2] = hAPJ cAMP EC50 Potency range, Table 1

Row | Compound | EC50 [1] | other results
1 | CCCCc1nc(O)c(S(=O)(=O)c2ccc(-c3ccc(F)nc3C)cc2)c(O)c1N(C)c1cccc(C)c1 [Example 095, 6-butyl-3-((4-(6-fluoro-2-methylpyridin-3-yl)phenyl)sulfonyl)-5-(methyl(m-tolyl)amino)pyridine-2,4-diol] | 10 to 100 nM | 
2 | CCCCc1nc(O)c(C(=O)N2CC[C@@H](c3ccccc3)C2)c(O)c1N(CCC)c1ccccc1 [Example 068, (S)-(6-butyl-2,4-dihydroxy-5-(phenyl(propyl)amino)pyridin-3-yl)(3-phenylpyrrolidin-1-yl)methanone] | 10 to 100 nM | 
3 | CCCCc1nc(O)c(S(=O)(=O)c2ccc(-c3ccccc3)cc2)c(O)c1N(CC)c1ccccc1 [Example 088, 3-([1,1′-biphenyl]-4-ylsulfonyl)-6-butyl-5-(ethyl(phenyl)amino)pyridine-2,4-diol] | 10 to 100 nM | 
4 | CCCCc1nc(O)c(S(=O)(=O)c2ccc(-c3ccc(F)nc3)cc2)c(O)c1N(C)c1ccccc1 [Example 012, 6-butyl-3-((4-(6-fluoropyridin-3-yl)phenyl)sulfonyl)-5-(methyl(phenyl)amino)pyridine-2,4-diol] | 0.01 to 10 nM | 
5 | CCN(c1ccccc1)c1c(-c2cnn(C)c2)nc(O)c(S(=O)(=O)c2ccc(-c3ccc(F)nc3C)cc2)c1O [Example 152, 5-(ethyl(phenyl)amino)-3-((4-(6-fluoro-2-methylpyridin-3-yl)phenyl)sulfonyl)-6-(1-methyl-1H-pyrazol-4-yl)pyridine-2,4-diol] | 0.01 to 10 nM | 
6 | CCCCc1nc(O)c(S(=O)(=O)c2ccc(-c3ccc(F)nc3C)cc2)c(O)c1N(C)c1ccccc1F [Example 118, 6-butyl-3-((4-(6-fluoro-2-methylpyridin-3-yl)phenyl)sulfonyl)-5-((2-fluorophenyl)(methyl)amino)pyridine-2,4-diol] | 0.01 to 10 nM | 
7 | CCN(c1ccccc1)c1c(-c2cccc(C)c2)nc(O)c(S(=O)(=O)c2ccc(-c3ccc(F)nc3C)cc2)c1O [Example 114, 5-(ethyl(phenyl)amino)-3-((4-(6-fluoro-2-methylpyridin-3-yl)phenyl)sulfonyl)-6-(m-tolyl)pyridine-2,4-diol] | 0.01 to 10 nM | 
8 | CCCCc1nc(O)c(S(=O)(=O)c2ccc(-c3cccnc3C)cc2)c(O)c1N(C)c1ccccc1 [Example 017, 6-butyl-5-(methyl(phenyl)amino)-3-((4-(2-methylpyridin-3-yl)phenyl)sulfonyl)pyridine-2,4-diol] | 0.01 to 10 nM | 
9 | CCCCc1nc(O)c(S(=O)(=O)c2ccc(-c3ccc(F)nc3C)cc2)c(O)c1N(C)c1ccccc1 [Example 015, 6-butyl-3-((4-(6-fluoro-2-methylpyridin-3-yl)phenyl)sulfonyl)-5-(methyl(phenyl)amino)pyridine-2,4-diol] | 0.01 to 10 nM | 
10 | CCCCc1nc(O)c(S(=O)(=O)c2ccc(-c3ccnc(F)c3C)cc2)c(O)c1N(CC)c1cc(C)cc(C)c1 [Example 136, 6-butyl-5-((3,5-dimethylphenyl)(ethyl)amino)-3-((4-(2-fluoro-3-methylpyridin-4-yl)phenyl)sulfonyl)pyridine-2,4-diol] | 0.01 to 10 nM | 
11 | CCCCc1nc(O)c(S(=O)(=O)c2ccc(-n3cc(Cl)ccc3=O)cc2)c(O)c1N(C)c1ccccc1 [Example 018, 1-(4-((6-butyl-2,4-dihydroxy-5-(methyl(phenyl)amino)pyridin-3-yl)sulfonyl)phenyl)-5-chloropyridin-2(1H)-one] | 0.01 to 10 nM | 
12 | CCN(c1cccc(C#N)c1)c1c(-c2ccn(C)n2)nc(O)c(S(=O)(=O)c2ccc(-c3ccccc3C(N)=O)cc2)c1O [Example 216, 4′-((5-((3-cyanophenyl)(ethyl)ami-no)-2,4-dihydroxy-6-(1-methyl-1H-pyrazol-3-yl)pyridin-3-yl)sulfonyl)-[1,1′-biphenyl]-2-carboxamide] | 0.01 to 10 nM | 
13 | CCCCc1nc(O)c(C(=O)N2CCC(c3ncc(F)cc3F)C2)c(O)c1N(C)c1ccccc1F (centres unmarked) [Example 006, (6-butyl-5-((2-fluorophenyl)(methyl)amino)-2,4-dihydroxypyridin-3-yl)(3-(3,5-difluoropyridin-2-yl)pyrrolidin-1-yl)methanone] |  | EC50 (read-out: Human APJ cAMP Potency range): 0.01 to 10 nM
14 | CCCCc1nc(O)c(S(=O)(=O)c2ccc(-c3ccccc3C(=O)NC)cc2)c(O)c1N1CCCCc2ccccc21 [Example 184, 4′-((6-butyl-2,4-dihydroxy-5-(2,3,4,5-tetrahydro-1H-benzo[b]azepin-1-yl)pyridin-3-yl)sulfonyl)-N-methyl-[1,1′-biphenyl]-2-carboxamide] | 10 to 100 nM | 
15 | CCCCc1nc(O)c(C(=O)N2CCC(c3ccc(Cl)cn3)C2)c(O)c1N(CC)c1ccccc1 (centres unmarked) [Example 067, (6-butyl-5-(ethyl(phenyl)amino)-2,4-dihydroxypyridin-3-yl)(3-(5-chloropyridin-2-yl)pyrrolidin-1-yl)methanone] |  | EC50 [2]: 0.01 to 10 nM
16 | CCCCc1nc(O)c(S(=O)(=O)c2ccc(-c3ccccc3C(=O)N(C)C)cc2)c(O)c1N1CCCc2ccccc21 [Example 054, 4′-((6-butyl-5-(3,4-dihydroquinolin-1(2H)-yl)-2,4-dihydroxypyridin-3-yl)sulfonyl)-N,N-dimethyl-[1,1′-biphenyl]-2-carboxamide] | 10 to 100 nM | 
17 | CCN(c1ccccc1)c1c(-c2cnc(C)s2)nc(O)c(S(=O)(=O)c2ccc(-c3ccc(F)nc3C)cc2)c1O [Example 190, 5-(ethyl(phenyl)amino)-3-((4-(6-fluoro-2-methylpyridin-3-yl)phenyl)sulfonyl)-6-(2-methylthiazol-5-yl)pyridine-2,4-diol] | 0.01 to 10 nM | 
18 | CCN(c1ccccc1)c1c(-c2cnn(C)c2)nc(O)c(S(=O)(=O)c2ccc(-c3ccc(F)cc3C(N)=O)cc2)c1O [Example 155, 4′-((5-(ethyl(phenyl)amino)-2,4-dihydroxy-6-(1-methyl-1H-pyrazol-4-yl)pyridin-3-yl)sulfonyl)-4-fluoro-[1,1′-biphenyl]-2-carboxamide] | 0.01 to 10 nM | 
19 | CCCCc1nc(O)c(S(=O)(=O)c2ccc(-c3ccccc3C(=O)NC)cc2)c(O)c1N1CCCOc2ccccc21 [Example 146, 4′-((6-butyl-5-(3,4-dihydrobenzo[b][1,4]oxazepin-5(2H)-yl)-2,4-dihydroxypyridin-3-yl)sulfonyl)-N-methyl-[1,1′-biphenyl]-2-carboxamide] | 0.01 to 10 nM | 
20 | CCCCc1nc(O)c(S(=O)(=O)c2ccc(-c3cccnc3C)cc2)c(O)c1N1c2ccccc2CCC1C (centres unmarked) [Example 046, 6-butyl-5-(2-methyl-3,4-dihydroquinolin-1(2H)-yl)-3-((4-(2-methylpyridin-3-yl)phenyl)sulfonyl)pyridine-2,4-diol] | 0.01 to 10 nM | 
21 | CCCCc1nc(O)c(S(=O)(=O)c2ccc(-c3ccncc3C)cc2)c(O)c1N(C)c1ccccc1F [Example 112, 6-butyl-5-((2-fluorophenyl)(methyl)amino)-3-((4-(3-methylpyridin-4-yl)phenyl)sulfonyl)pyridine-2,4-diol] | 0.01 to 10 nM | 
22 | CCN(c1ccccc1)c1c(-c2cnn(C)c2)nc(O)c(S(=O)(=O)c2ccc(-c3ccccc3C(=O)NC3CC3)cc2)c1O [Example 153, N-cyclopropyl-4′-((5-(ethyl(phenyl)amino)-2,4-dihydroxy-6-(1-methyl-1H-pyrazol-4-yl)pyridin-3-yl)sulfonyl)-[1,1′-biphenyl]-2-carboxamide] | 0.01 to 10 nM | 
23 | CCN(c1ccccc1)c1c(-c2cnn(C)c2)nc(O)c(S(=O)(=O)c2ccc(-c3ccncc3C)cc2)c1O [Example 156, 5-(ethyl(phenyl)amino)-6-(1-methyl-1H-pyraozl-4-yl)-3-((4-(3-methylpyridin-4-yl)phenyl)sulfonyl)pyri-dine-2,4-diol] | 0.01 to 10 nM | 
24 | CCCCc1nc(O)c(S(=O)(=O)c2ccc(-c3ccncc3C)cc2)c(O)c1N(C)c1ccc(C)cc1 [Example 094, 6-butyl-5-(methyl(p-tolyl)amino)-3-((4-(3-methylpyridin-4-yl)phenyl)sulfonyl)pyridine-2,4-diol] | 0.01 to 10 nM | 
25 | CCCCc1nc(O)c(S(=O)(=O)c2ccc(-c3ccnc(F)c3C)cc2)c(O)c1N1CCC(C)c2ccccc21 (centres unmarked) [Example 044, 6-butyl-3-((4-(2-fluoro-3-methylpyridin-4-yl)phenyl)sulfonyl)-5-(4-methyl-3,4-dihydroquinolin-1(2H)-yl)pyridine-2,4-diol] | 0.01 to 10 nM | 
26 | CCCCc1nc(O)c(S(=O)(=O)c2ccc(-c3ccccc3C(N)=O)cc2)c(O)c1N(C)c1cccc(C#N)c1 [Example 138, 4′-((6-butyl-5-((3-cyanophenyl)(methyl)amino)-2,4-dihydroxypyridin-3-yl)sulfonyl)-[1,1′-biphenyl]-2-carboxamide] | 0.01 to 10 nM | 
27 | CCCCc1nc(O)c(S(=O)(=O)c2ccc(-c3ccnc(F)c3C)cc2)c(O)c1N(CC)c1ccccc1 [Example 080, 6-butyl-5-(ethyl(phenyl)amino)-3-((4-(2-fluoro-3-methylpyridin-4-yl)phenyl)sulfonyl)pyridine-2,4-diol] | 0.01 to 10 nM | 
28 | CCCCc1nc(O)c(S(=O)(=O)c2ccc(-c3cccnc3C)cc2)c(O)c1N(C)c1cccc(OC)c1 [Example 039, 6-butyl-5-((3-methoxyphenyl)(methyl)amino)-3-((4-(2-methylpyridin-3-yl)phenyl)sulfonyl)pyridine-2,4-diol] | 0.01 to 10 nM | 
29 | CCCCc1nc(O)c(C(=O)N2CC[C@@H](c3ccccc3)C2)c(O)c1N(C)c1ccc(OC)cc1 [Example 036, (S)-(6-butyl-2,4-dihydroxy-5-((4-methoxyphenyl)(methyl)amino)pyridin-3-yl)(3-phenylpyrrolidin-1-yl)methanone] |  | EC50 [2]: 10 to 100 nM
